Data reported in US20230365546A1, “5-SUBSTITUTED INDOLE 3-AMIDE DERIVATIVES, PREPARATION METHOD AND USE THEREOF” (ORIGIANT PHARMACEUTICAL CO., LTD, priority 2020, published 2023).

How the values were obtained:
[1] = target: MAPK1(h) (Homo sapiens (Human), UniProt P27361); assay: Kinase Profiler 10 μM panel
Method: (§1) In vitro kinase assays were conducted using Kinase Profiler services provided by Eurofins. The experimental method was as follows: the small molecule compound to be tested (0.001-10 μM), the protein kinase to be tested were incubated with a buffer containing substrate, 10 mM magnesium acetate, and [γ-^33P-ATP], the reaction was started by adding Mg\TPmix, after incubation for a period of time at room temperature, a 3% phosphate solution was added to the buffer to stop the reaction. Subsequently, 10 μL of the reaction mixture was quantitatively pipetted onto P30 filter paper, which was washed three times with 75 mM phosphate solution and then once with methanol. The P30 filter paper was air-dried and scintillation fluid was added for scintillation counting.

[2] = target: MAPK2(m) (Mus musculus (Mouse), UniProt P63085); assay: Kinase Profiler 10 μM panel
Method: as §1

[3] = target: PrKX(h) (Homo sapiens (Human), UniProt P51817); assay: Kinase Profiler 10 μM panel
Method: as §1

[4] = target: PAK2(h) (Homo sapiens (Human), UniProt Q13177); assay: Kinase Profiler 10 μM panel
Method: as §1

[5] = target: PRK2(h) (Homo sapiens (Human), UniProt Q16513); assay: Kinase Profiler 10 μM panel
Method: as §1

[6] = target: CDK4/cyclinD3(h) (Homo sapiens (Human), UniProt P11802); assay: Kinase Profiler 10 μM panel
Method: as §1

[7] = target: Tec(h) activated (Homo sapiens (Human), UniProt P42680); assay: Kinase Profiler 10 μM panel
Method: as §1

[8] = target: PI3KC2a(h) (Homo sapiens (Human), UniProt O00443); assay: Kinase Profiler 10 μM panel
Method: as §1

[9] = In vivo pharmacokinetic study in rats; conditions: rat, plasma, oral, 10 mg/kg
Method: Blood was collected from rats at different times after administration at the following time points: 0.083 h, 0.25 h, 0.5 h, 1 h, 2 h, 4 h, 8 h, and 24 h after intravenous administration; 0.25 h, 0.5 h, 1 h, 2 h, 4 h, 6 h, 8 h, and 24 h after oral administration. About 0.20 mL of blood was collected via jugular vein or other suitable means for each sample at the corresponding time, with heparin sodium for anticoagulation; the blood sample was placed on ice after collection and centrifuged within 1 h to separate the plasma (centrifugation conditions: centrifugal force 6800 g, 6 min, 2-8° C.). The collected plasma samples were stored in a refrigerator at −80° C. before analysis, and the remaining plasma samples continued to be temporarily stored in the refrigerator at −80° C. for one month after analysis.
Pharmacokinetic parameters such as AUC (0-t), T1/2, Cmax, Tmax, and MRT were calculated using WinNonlin based on plasma concentration data at different time points. The plasma drug concentration-time curve was plotted with BLQ recorded as 0. For the calculation of pharmacokinetic parameters, the concentration before administration was calculated as 0; BLQ before Cmax (including “No peak”) was calculated as 0; no BLQ (including “No peak”) appeared after Cmax participated in the calculation. The experiment was completed by Shanghai Medicilon Inc.

[10] = target: Ret(V804M)(h) (Homo sapiens (Human), UniProt P07949, V804M); assay: Kinase Profiler 10 μM panel
Method: as §1

[11] = target: PhKγ2(h) (Homo sapiens (Human), UniProt P15735); assay: Kinase Profiler 10 μM panel
Method: as §1

[12] = target: IKKß(h) (Homo sapiens (Human), UniProt O14920); assay: Kinase Profiler 10 μM panel
Method: as §1

[13] = target: JAK1(h) (Homo sapiens (Human), UniProt P23458); assay: Kinase Profiler 10 μM panel
Method: as §1

[14] = target: Ros(h) (Homo sapiens (Human), UniProt P08922); assay: Kinase Profiler 10 μM panel
Method: as §1

[15] = target: IKKa(h) (Homo sapiens (Human), UniProt O15111); assay: Kinase Profiler 10 μM panel
Method: as §1

[16] = target: mTOR(h) (Homo sapiens (Human), UniProt P42345); assay: Kinase Profiler 10 μM panel
Method: as §1

[17] = target: MLK2(h) (Homo sapiens (Human), UniProt Q02779); assay: Kinase Profiler 10 μM panel
Method: The experimental method was as follows: the small molecule compound to be tested (0.001-10 μM), the protein kinase to be tested were incubated with a buffer containing substrate, 10 mM magnesium acetate, and [γ-^33P-ATP], the reaction was started by adding Mg\TPmix, after incubation for a period of time at room temperature, a 3% phosphate solution was added to the buffer to stop the reaction. Subsequently, 10 μL of the reaction mixture was quantitatively pipetted onto P30 filter paper, which was washed three times with 75 mM phosphate solution and then once with methanol. The P30 filter paper was air-dried and scintillation fluid was added for scintillation counting.

[18] = target: Itk(h) (Homo sapiens (Human), UniProt Q08881); assay: Kinase Profiler 10 μM panel
Method: as §1

[19] = target: LOK(h) (Homo sapiens (Human), UniProt O94804); assay: Kinase Profiler 10 μM panel
Method: as §1

[20] = target: MKK6(h) (Homo sapiens (Human), UniProt P52564); assay: Kinase Profiler 10 μM panel
Method: as §1

[21] = target: PI3 Kinase (p110a(H1047R)/p85a)(m) (Mus musculus (Mouse), UniProt P42337, H1047R); assay: Kinase Profiler 10 μM panel
Method: as §1

[22] = target: PDGFRα(V561D)(h) (Homo sapiens (Human), UniProt P16234, V561D); assay: Kinase Profiler 10 μM panel
Method: as §1

[23] = target: LRRK2(h) (Homo sapiens (Human), UniProt Q5S007); assay: Kinase Profiler 10 μM panel
Method: as §1

[24] = target: PKCβI(h) (Homo sapiens (Human), UniProt P05771); assay: Kinase Profiler 10 μM panel
Method: as §1

[25] = target: CDK13/cyclinK(h) (Homo sapiens (Human), UniProt Q14004); assay: Kinase Profiler 10 μM panel; format: biochemical
Method: as §1

[26] = target: LIMK1(h) (Homo sapiens (Human), UniProt P53667); assay: Kinase Profiler 10 μM panel
Method: as §1

[27] = target: Fer(h) (Homo sapiens (Human), UniProt P16591); assay: Kinase Profiler 10 μM panel
Method: as §1

Sequence of PrKX(h) (P51817 whole entry): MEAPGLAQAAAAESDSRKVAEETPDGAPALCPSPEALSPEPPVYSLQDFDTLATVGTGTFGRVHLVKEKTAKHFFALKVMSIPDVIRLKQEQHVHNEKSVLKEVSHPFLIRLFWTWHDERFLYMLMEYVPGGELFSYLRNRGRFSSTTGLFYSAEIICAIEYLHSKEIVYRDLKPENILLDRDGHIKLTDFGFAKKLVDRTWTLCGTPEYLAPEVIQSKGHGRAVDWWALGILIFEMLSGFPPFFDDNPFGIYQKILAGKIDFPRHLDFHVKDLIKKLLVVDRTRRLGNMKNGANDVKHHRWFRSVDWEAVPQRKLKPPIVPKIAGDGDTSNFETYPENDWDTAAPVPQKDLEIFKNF
Sequence of MKK6(h) (P52564 whole entry): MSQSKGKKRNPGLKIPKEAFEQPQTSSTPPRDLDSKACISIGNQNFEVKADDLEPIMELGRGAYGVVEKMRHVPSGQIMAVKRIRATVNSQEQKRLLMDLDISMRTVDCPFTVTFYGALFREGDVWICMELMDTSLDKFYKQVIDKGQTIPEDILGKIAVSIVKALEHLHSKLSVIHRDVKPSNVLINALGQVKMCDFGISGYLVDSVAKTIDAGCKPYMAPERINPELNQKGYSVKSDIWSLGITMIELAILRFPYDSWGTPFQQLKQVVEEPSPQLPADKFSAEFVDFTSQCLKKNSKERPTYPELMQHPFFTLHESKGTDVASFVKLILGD
Sequence of Tec(h) activated (P42680 whole entry): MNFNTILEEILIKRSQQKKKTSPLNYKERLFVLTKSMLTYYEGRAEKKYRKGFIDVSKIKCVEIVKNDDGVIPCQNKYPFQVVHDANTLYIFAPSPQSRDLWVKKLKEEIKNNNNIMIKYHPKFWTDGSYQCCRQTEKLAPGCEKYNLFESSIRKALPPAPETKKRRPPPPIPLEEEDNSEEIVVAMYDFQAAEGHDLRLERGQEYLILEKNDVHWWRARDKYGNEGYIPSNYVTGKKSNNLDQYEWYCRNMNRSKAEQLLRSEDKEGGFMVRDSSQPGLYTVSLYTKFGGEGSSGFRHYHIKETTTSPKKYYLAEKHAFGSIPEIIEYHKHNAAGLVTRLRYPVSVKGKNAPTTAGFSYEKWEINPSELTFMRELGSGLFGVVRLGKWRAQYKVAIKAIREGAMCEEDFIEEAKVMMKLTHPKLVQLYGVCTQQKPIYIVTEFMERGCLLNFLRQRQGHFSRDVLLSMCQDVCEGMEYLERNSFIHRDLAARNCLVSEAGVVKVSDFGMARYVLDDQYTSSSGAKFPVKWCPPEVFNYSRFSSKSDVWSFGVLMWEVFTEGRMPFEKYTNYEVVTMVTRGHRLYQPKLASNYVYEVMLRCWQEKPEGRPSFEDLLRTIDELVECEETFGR
Sequence of PDGFRα(V561D)(h) (P16234 24-1089 V561D): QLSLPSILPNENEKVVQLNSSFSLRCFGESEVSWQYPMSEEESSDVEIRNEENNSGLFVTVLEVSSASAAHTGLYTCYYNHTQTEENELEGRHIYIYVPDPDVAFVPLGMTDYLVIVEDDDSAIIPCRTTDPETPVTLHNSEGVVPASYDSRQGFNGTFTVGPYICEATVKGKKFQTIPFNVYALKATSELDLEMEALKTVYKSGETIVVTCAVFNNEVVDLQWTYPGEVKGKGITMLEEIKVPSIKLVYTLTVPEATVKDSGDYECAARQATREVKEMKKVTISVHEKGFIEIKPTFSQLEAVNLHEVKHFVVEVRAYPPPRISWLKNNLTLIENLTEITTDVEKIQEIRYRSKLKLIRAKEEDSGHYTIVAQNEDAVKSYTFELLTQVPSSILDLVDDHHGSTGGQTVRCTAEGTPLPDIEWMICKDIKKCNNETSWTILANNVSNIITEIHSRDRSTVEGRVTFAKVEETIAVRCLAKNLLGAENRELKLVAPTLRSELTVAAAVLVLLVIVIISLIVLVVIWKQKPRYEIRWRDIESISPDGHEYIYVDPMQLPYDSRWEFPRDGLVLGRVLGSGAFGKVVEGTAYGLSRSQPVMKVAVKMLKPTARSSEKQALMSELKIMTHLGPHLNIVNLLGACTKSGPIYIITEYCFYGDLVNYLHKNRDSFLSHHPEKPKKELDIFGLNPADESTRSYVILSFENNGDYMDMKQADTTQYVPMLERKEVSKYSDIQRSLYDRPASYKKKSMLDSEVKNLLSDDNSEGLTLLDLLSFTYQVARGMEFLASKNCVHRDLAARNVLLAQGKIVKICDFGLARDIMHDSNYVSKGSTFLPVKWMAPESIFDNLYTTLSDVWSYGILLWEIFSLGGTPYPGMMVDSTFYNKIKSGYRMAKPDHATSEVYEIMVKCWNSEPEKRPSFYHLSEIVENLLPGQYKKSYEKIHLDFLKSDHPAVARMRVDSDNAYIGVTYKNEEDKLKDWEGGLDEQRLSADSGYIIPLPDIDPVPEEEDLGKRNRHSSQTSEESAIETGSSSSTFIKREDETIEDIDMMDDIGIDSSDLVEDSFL
Sequence of Ros(h) (P08922 28-2347): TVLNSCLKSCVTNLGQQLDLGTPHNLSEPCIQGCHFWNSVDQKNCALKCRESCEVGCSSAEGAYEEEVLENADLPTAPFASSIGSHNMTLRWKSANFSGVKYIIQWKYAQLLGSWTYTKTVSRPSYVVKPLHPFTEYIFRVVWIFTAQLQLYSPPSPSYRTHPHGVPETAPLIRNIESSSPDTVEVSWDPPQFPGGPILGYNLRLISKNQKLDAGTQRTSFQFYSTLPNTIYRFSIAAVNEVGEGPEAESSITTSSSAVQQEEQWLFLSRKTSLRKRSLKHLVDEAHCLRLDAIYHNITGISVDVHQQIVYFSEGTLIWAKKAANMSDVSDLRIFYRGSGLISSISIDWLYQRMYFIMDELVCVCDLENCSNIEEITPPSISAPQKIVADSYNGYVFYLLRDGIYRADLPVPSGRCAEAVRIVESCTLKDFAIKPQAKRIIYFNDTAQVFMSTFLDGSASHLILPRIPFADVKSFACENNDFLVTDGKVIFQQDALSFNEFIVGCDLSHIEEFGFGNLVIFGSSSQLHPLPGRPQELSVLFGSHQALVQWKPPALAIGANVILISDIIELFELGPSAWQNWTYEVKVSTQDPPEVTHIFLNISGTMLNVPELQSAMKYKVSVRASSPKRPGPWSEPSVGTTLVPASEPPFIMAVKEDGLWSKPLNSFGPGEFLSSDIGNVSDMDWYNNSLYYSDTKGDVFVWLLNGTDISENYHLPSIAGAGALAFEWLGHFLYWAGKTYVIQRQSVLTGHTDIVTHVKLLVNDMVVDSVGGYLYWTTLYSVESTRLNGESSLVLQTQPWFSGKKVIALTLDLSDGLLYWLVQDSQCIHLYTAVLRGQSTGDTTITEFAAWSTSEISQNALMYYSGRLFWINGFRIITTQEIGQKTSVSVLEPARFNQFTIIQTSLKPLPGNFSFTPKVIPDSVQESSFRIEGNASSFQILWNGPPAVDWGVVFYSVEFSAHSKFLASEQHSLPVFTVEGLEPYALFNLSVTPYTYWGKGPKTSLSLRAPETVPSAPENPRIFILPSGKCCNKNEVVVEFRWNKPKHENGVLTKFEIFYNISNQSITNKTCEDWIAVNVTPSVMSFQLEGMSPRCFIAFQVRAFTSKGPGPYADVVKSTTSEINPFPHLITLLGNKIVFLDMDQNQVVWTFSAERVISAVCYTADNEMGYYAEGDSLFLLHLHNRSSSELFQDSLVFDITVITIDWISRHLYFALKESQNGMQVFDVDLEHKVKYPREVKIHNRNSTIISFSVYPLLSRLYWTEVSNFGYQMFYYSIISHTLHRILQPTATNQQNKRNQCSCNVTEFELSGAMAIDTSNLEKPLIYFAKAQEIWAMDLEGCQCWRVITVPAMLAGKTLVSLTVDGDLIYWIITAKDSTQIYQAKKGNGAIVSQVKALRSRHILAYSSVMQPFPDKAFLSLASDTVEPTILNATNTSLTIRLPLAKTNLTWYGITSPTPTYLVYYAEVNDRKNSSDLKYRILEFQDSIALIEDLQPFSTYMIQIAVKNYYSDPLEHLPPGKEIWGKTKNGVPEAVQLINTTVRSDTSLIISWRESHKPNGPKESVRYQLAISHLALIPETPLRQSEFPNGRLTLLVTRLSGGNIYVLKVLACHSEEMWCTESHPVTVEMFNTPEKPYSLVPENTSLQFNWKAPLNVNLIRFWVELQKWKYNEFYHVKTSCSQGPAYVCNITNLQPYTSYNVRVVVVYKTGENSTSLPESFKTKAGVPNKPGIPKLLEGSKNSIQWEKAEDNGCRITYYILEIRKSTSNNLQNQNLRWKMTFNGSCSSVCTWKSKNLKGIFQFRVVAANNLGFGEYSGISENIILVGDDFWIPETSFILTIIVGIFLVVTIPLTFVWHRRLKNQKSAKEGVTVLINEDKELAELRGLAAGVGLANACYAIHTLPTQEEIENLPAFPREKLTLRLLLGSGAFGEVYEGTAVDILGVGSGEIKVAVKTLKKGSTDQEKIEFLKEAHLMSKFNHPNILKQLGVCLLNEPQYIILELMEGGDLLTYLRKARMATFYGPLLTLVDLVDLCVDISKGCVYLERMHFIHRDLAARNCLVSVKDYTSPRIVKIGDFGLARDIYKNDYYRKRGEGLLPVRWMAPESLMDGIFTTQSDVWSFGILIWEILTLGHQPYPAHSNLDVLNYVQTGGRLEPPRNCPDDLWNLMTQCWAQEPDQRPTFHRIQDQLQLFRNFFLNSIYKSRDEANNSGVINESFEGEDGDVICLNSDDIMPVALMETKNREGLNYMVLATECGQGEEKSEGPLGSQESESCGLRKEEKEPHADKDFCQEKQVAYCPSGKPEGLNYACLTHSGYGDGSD
Sequence of MAPK2(m) (P63085 whole entry): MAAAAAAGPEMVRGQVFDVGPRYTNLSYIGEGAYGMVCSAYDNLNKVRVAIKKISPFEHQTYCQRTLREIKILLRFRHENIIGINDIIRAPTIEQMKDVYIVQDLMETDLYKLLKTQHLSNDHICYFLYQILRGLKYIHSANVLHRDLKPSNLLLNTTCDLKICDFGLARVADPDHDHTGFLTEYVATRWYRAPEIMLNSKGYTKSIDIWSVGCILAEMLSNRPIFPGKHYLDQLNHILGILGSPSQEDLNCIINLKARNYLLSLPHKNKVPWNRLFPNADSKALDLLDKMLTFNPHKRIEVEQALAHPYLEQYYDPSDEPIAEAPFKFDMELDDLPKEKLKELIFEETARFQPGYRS

SMILES: C[C@H](NC(=O)c1c[nH]c2ccc(-c3ccc4nc(NC(=O)C5CC5)sc4c3)cc12)c1cccc(F)c1 [Compound 34, (S)-5-(2-(cyclopropanecarboxamido)benzo[d]thiazol-6-yl)-N-(1-(3-fluorophenyl)ethyl)-1H-indole-3-carboxamide]
- Inhibition ratio [1]: 25%
- Inhibition ratio [2]: 12%
- Inhibition ratio [3]: 6%
- Inhibition ratio [4]: 19%
- Inhibition ratio [5]: 0%
- Inhibition ratio [6]: −5%
- Inhibition ratio [7]: 17%
- Inhibition ratio [8]: 16%
- AUC(0-t) [9]: 4450 ng·h/mL
- Cmax [9]: 852 ng/mL
- Tmax [9]: 4 h
- bioavailability [9]: 7.89%
- half-life [9]: 2.06 h
- Inhibition ratio [10]: 98%
- Inhibition ratio [11]: 5%
- Inhibition ratio ([12]; IKKß(h)): 12%
- Inhibition ratio [13]: 26%
- Inhibition ratio [14]: 31%
- Inhibition ratio ([15]; IKKa(h)): 5%
- Inhibition ratio [16]: −7%
- Inhibition ratio [17]: 99%
- Inhibition ratio [18]: 99%
- Inhibition ratio [19]: 85%
- Inhibition ratio [20]: 7%
- Inhibition ratio [21]: 17%
- Inhibition ratio ([22]; PDGFRα(V561D)(h)): 99%
- Inhibition ratio [23]: 30%
- Inhibition ratio [24]: 27%
- Inhibition ratio [25]: 19%
- Inhibition ratio [26]: 14%
- Inhibition ratio [27]: 62%

SMILES: C[C@H](NC(=O)c1cn(C)c2ccc(-c3ccn4nc(NC(=O)C5CC5)nc4c3)cc12)c1cccc(F)c1 [Compound 94, (S)-5-(2-(cyclopropanecarboxamido)-[1,2,4]triazolo[1,5-a]pyridin-7-yl)-N-(1-(3-fluorophenyl)ethyl)-1-methyl-1H-indole-3-carboxamide]
- Inhibition ratio/% [1]: 33%
- Inhibition ratio/% [2]: 33%
- Inhibition ratio/% [3]: −10%
- Inhibition ratio/% [4]: −14%
- Inhibition ratio/% [5]: −4%
- Inhibition ratio/% [6]: 4%
- Inhibition ratio/% [7]: −20%
- Inhibition ratio/% [8]: 40%
- AUC(0-t) [9]: 1850 ng·h/mL
- Cmax [9]: 330 ng/mL
- Tmax [9]: 1.67 h
- bioavailability [9]: 12.1%
- half-life [9]: 7.02 h
- Inhibition ratio/% [10]: 45%
- Inhibition ratio/% [11]: 48%
- Inhibition ratio/% ([12]; IKKβ(h)): −3%
- Inhibition ratio/% [13]: 52%
- Inhibition ratio/% [14]: −18%
- Inhibition ratio/% ([15]; IKKα(h)): 29%
- Inhibition ratio/% [16]: −11%
- Inhibition ratio/% [17]: 99%
- Inhibition ratio/% [18]: 92%
- Inhibition ratio/% [19]: 25%
- Inhibition ratio/% [20]: 30%
- Inhibition ratio/% [21]: 47%
- Inhibition ratio/% ([22]; printed in Table 4 as PDGFRβ (V561D)(h)): 38%
- Inhibition ratio/% [23]: 10%
- Inhibition ratio/% [24]: 6%
- Inhibition ratio/% [25]: 66%
- Inhibition ratio/% [26]: −1%
- Inhibition ratio/% [27]: 10%
